Data reported in BigSolDB 2.1.

Work on `O=c1[nH]c2ccccc2n1CCCN1CCC(n2c(=O)[nH]c3cc(Cl)ccc32)CC1` yielded a solubility (mole fraction) (in DMF, 323.15 K) of 0.000679, a solubility (mole fraction) (in DMF, 328.15 K) of 0.000791 and a solubility (mole fraction) (in DMF, 333.15 K) of 0.000911. The solubility (mole fraction) (in DMSO, 323.15 K) was 0.00142, the solubility (mole fraction) (in DMSO, 328.15 K) was 0.00171 and the solubility (mole fraction) (in DMSO, 333.15 K) was 0.00209. It also gave a solubility (mole fraction) (in isopropanol, 293.15 K) of 1.85e-05, a solubility (mole fraction) (in isopropanol, 298.15 K) of 2.29e-05 and a solubility (mole fraction) (in isopropanol, 323.15 K) of 6.48e-05. For the same compound, the solubility (mole fraction) (in isopropanol, 328.15 K) was 7.7e-05, the solubility (mole fraction) (in isopropanol, 333.15 K) was 8.99e-05 and the solubility (mole fraction) (in water, 323.15 K) was 6.38e-07. It also gave a solubility (mole fraction) (in water, 328.15 K) of 7.73e-07 and a solubility (mole fraction) (in water, 333.15 K) of 9.34e-07.
